In article PMC10790750, “A widespread methylotroph acyl-homoserine lactone synthase produces a new quorum sensing signal that regulates swarming in Methylobacterium fujisawaense” (mBio, 2023):
Like-named read-outs stand apart in the source and are kept apart here.

Key:
Type in all cases: cell-based
MmaI (Ga0373204_3345) = biological target: T1, MmaI (Ga0373204_3345) (Methylobacterium fujisawaense, UniProt A0ABR6DCY1); test: LC-MS/MS, NMR of culture extract; deletion mutant control; conditions: native strain grown on methanol
T1 construct: gene GGQ91_003338; native expression in DSM5686; deletion mutant as control

MmaR (MmaRDSM5686) = biological target: T2, MmaR (MmaRDSM5686) (Methylobacterium fujisawaense, UniProt A0ABR6DCX3); test: mScarlet reporter activation in M. extorquens AWP370
T2 construct: gene GGQ91_003337; mmaR inserted in genome of Methylorubrum extorquens AWP227 (mlaR/mlaI deleted) under native mlaR promoter; reporter strain AWP370 with mmaI promoter-mScarlet

Mrad2831_5763 (MmaI) = biological target: T3, Mrad2831_5763 (MmaI) (Methylobacterium radiotolerans, UniProt B1M2Q9); test: LC-MS/MS of culture extract after heterologous expression; conditions: product identified by m/z, retention time and fragmentation
T3 construct: heterologously expressed
T3 sequence (B1M2Q9 1-207): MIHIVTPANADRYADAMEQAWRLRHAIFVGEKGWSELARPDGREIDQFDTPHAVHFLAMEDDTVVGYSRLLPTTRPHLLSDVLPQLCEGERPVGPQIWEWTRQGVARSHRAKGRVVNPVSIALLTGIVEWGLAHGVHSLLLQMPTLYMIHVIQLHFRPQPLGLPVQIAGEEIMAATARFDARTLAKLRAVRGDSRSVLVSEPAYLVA

T2 sequence (A0ABR6DCX3 entry or part of it): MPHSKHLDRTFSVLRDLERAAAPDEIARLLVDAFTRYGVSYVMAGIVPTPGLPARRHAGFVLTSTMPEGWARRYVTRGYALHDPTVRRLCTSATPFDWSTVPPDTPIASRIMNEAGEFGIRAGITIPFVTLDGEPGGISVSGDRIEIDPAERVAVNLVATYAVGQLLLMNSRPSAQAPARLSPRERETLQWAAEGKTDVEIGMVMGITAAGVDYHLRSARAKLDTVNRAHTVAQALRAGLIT
T1 sequence (A0ABR6DCY1 entry or part of it): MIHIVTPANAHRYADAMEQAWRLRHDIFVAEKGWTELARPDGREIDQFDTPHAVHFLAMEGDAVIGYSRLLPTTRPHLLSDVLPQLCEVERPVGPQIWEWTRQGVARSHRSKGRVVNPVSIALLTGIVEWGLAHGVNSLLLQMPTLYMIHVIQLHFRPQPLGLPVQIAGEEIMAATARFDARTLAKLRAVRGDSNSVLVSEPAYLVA

Structure (SMILES)	LC-MS/MS, NMR of culture extract; deletion mutant control (MmaI (Ga0373204_3345))	EC50 (MmaR (MmaRDSM5686); purified natural signal added, mmaI promoter-mScarlet reporter, agonist) [nM]	LC-MS/MS of culture extract after heterologous expression (Mrad2831_5763 (MmaI))	EC50 (MmaR (MmaRDSM5686)) [nM]
CCCCCC/C=C\C[C@@H](O)CC(=O)NC1CCOC1=O (stereo partly drawn) [3R-OH-5Z-C12:1-HSL, N-(3R-hydroxy-5-cis-dodecenoyl)-L-homoserine lactone]	this feature was not present in a culture of an in-frame, unmarked deletion mutant	0.2	we observed a feature with the same m/z, retention time, and fragmentation pattern	–
CCCCCCCCCC(O)CC(=O)N[C@H]1CCOC1=O (stereo partly shown) [3-OH-C12-HSL]	–	–	–	1.7
